The values below come from patent publication US9732070B2, “Protein kinase C inhibitors and uses thereof” (Rigel Pharmaceuticals, Inc., priority 2009, dated 2017).

One assay deals with Human primary T cells. Put plainly: IL-2 ELISA, human primary T cell, anti-CD3+CD28 stimulation. Type of assay: cell-based. The following applies: IL-2 quantified by ELISA; human primary T cells stimulated with αCD3 and αCD28, 24 hours. Here is the method: Human primary T cell isolation and culture: Human primary T cells were prepared as follows. Whole blood was obtained from a healthy volunteer, mixed 1:1 with PBS, layered on to Ficoll Hypaque (Amersham Pharmacia Biotech, Piscataway, N.J., Catalog #17-1440-03) in 2:1 blood/PBS:ficoll ratio and centrifuged for 30 minutes at 4° C. at 1750 rpm. The cells at the serum: ficoll interface were recovered and washed twice with 5 volumes of PBS. These freshly isolated human peripheral blood mononuclear cells were cultured in Yssel's medium containing 40 U/mL IL2 in a flask pre-coated with 1 μg/mL αCD3 and 5 μg/mL αCD28 (Anti-Human CD3, BD Pharmingen Catalog #555336, Anti-Human CD28, Beckman Coulter Catalog #IM1376). The cells were stimulated for 3-4 days, then transferred to a fresh flask and maintained in RPMI (RPMI-1640 with L-Glutamine; Mediatech, Inc., Herndon Va., cat. #10-040-CM) with 10% FBS and 40 U/mL IL-2. The primary T-cells were then washed twice with PBS to remove the IL-2.
Primary T cell stimulation and IL2 ELISA: Human primary T cells (100,000 cells per well) were pre-incubated with or without test compound in Yssel's medium for 1 hour at 37° C. Cells were then stimulated by transferring them to round-bottom 96-well plates pre-coated with 1 μg/ml αCD3 and 5 μg/ml αCD28. For counter assay, cells were instead stimulated by adding 8× stock solutions of PMA and ionomycin in Yssels (for final concentrations of 0.5 ng/ml PMA and 0.1 uM ionomycin, both from Calbiochem). Cells were incubated at 37° C. for 24 hours before 100 μL supernatants were harvested for quantification of IL-2 by ELISA using Human IL-2 Duoset ELISA Kit from R and D Systems, Cat. # DY202E.
For orientation: In an ELISA, binding on a coated surface is turned into a signal by an enzyme label.
In general, IC50 refers to the concentration that gives 50% inhibition. Lower therefore signals higher potency. As for `CC(C)Oc1c(-n2nnn(C)c2=O)cc(Nc2ncc(F)c(NC3CC(C)(C)N(C)C(C)(C)C3)n2)cc1C(F)(F)F` [I-52, N2-(4-isopropoxy-3-(4-methyl-4,5-dihysro-5-oxo-1H-tetrazol-1-yl)-5-trifluoromethylphenyl)-5-fluoro-N4-(1,2,2,6,6-pentamethylpiperidin-4-yl)pyrimidine-2,4-diamine], the IC50 is < 500 nM. Same read-out and setting: next, `CN1C(C)(C)CC(Nc2nc(Nc3cc(F)cc(-n4nnn(C)c4=O)c3)ncc2F)CC1(C)C` [I-22, 1-(3-(4-(1,2,2,6,6-pentamethylpiperidin-4-ylamion)-5fluoropyrimidin-2-ylamino)-5-fluorophenyl)-4-methyl-1H-tetrazol-5(4H)-one]: < 500 nM; `CC(C)Oc1ccc(Nc2ncc(F)c(NC3CC(C)(C)NC(C)(C)C3)n2)cc1-n1nnn(C)c1=O` [I-11, 5-fluoro-n2-{4-isopropoxy-[3-(4-methyl)-1,2,3,4-tetrazol-5-one-1-yl]}phenyl-n4-(2,2,6,6-tetramethylpiperidin-4-yl)-2,4-pyrimidinediamine]: < 500 nM.

Still in this assay, the particulars now being: T-cell; IL-2 quantified by ELISA; human primary T cells stimulated with αCD3 and αCD28, 24 hours.
As for `Cn1nnn(-c2cc(Nc3ncc(F)c(NC4CC(C)(C)NC(C)(C)C4)n3)cc(C3CC3)c2)c1=O` [I-35, N2-{5-cyclopropyl-[3-(4-methyl)-1,2,3,4-tetrazol-5-one-1-yl]}phenyl-5-fluoro-N4-(2,2,6,6-tetramethylpiperidin-4-yl)-2,4-pyrimidinediamine], the half-maximal inhibitory concentration (IC50) was < 500 nM. Turning to `CN1C(C)(C)CC(Nc2nc(Nc3cc(-n4nnn(C)c4=O)cc(C(F)(F)F)c3)ncc2F)CC1(C)C` [I-47, N2-(3-(4-methyl-4,5-dihydro-5-oxo-1H-tetrazol-1-yl)-5-trifluoromethylphenyl)-5-fluoro-N4-(1,2,2,6,6-pentamethylpiperidin-4-yl)pyrimidine-2,4-diamine], the IC50 was < 500 nM. Same read-out and setting: next, `Cn1nnn(-c2cc(Cl)cc(Nc3ncc(F)c(NC4CC(C)(C)NC(C)(C)C4)n3)c2)c1=O` [I-37, N2-{5-chloro-[3-(4-methyl)-1,2,3,4-tetrazol-5-one-1-yl]}phenyl-5-fluoro-N4-(2,2,6,6-tetramethylpiperidin-4-yl)-2,4-pyrimidinediamine]: 510 to 2990 nM; `Cc1ccc(Nc2ncc(F)c(NC3CC(C)(C)N(C)C(C)(C)C3)n2)cc1-n1nnn(C)c1=O` [I-8, 5-fluoro-n2-{4-methyl-[3-(4-methyl)-1,2,3,4-tetrazol-5-one-1-yl]}phenyl-n4-(1,2,2,6,6-pentamethylpiperidin-4-yl)-2,4-pyrimidinediamine]: < 500 nM.

The compound `Cc1c(C(=O)O)cc(Nc2ncc(F)c(NC3CC(C)(C)NC(C)(C)C3)n2)cc1-n1nnn(C)c1=O` [I-61] had an IC50 of 3000 to 25000 nM. Same read-out and setting: the result for `Cn1nnn(-c2cc(Nc3ncc(F)c(NC4CC(C)(C)NC(C)(C)C4)n3)cc(C(F)(F)F)c2C2CC2)c1=O` [I-39, N2-{4-cyclopropyl-5-trifluoromethyl-[3-(4-methyl)-1,2,3,4-tetrazol-5-one-1-yl]}phenyl-5-fluoro-N4-(2,2,6,6-tetramethylpiperidin-4-yl)2,5-pyrimidinediamine] reads < 500 nM; that for `CN1C(C)(C)CC(Nc2nc(Nc3ccc(F)c(-n4nnn(C)c4=O)c3F)ncc2F)CC1(C)C` [I-66, N2-(2,4-difluoro-3-(4-methyl-4,5-dihydro-5-oxo-1H-tetrazol-1-yl)phenyl)-5-fluoro-N4-(1,2,2,6,6-pentamethylpiperidin-4-yl)pyrimidine-2,4-diamine], 3000 to 25000 nM. In the case of `COc1cc(Nc2ncc(F)c(NC3CC(C)(C)NC(C)(C)C3)n2)cc(-n2nnn(C)c2=O)c1` [I-32, N2-{5-methody-[3-(4-methyl)-1,2,3,4-tetrazol-5-one-1-yl]}phenyl-5-fluoro-N4-(2,2,6,6-tetramethylpiperidin-4-yl)-2,5-pyrimidinediamine], the IC50 was < 500 nM. With `Cc1c(C(=O)O)cc(Nc2ncc(F)c(NC3CC(C)(C)N(C)C(C)(C)C3)n2)cc1-n1nnn(C)c1=O` [I-65, 5-((5-fluoro-4-((1,2,2,6,6-pentamethylpiperidin-4-yl)amino)-2-pyrimidinyl)amino)-2-methyl-3-(4-methyl-4,5-dihydro-5-oxo-1H-tetrazol-1-yl)benzoic Acid], the IC50 fell in the range of 3000 to 25000 nM. With `Cn1nnn(-c2cc(Nc3ncc(F)c(NC4CC(C)(C)NC(C)(C)C4)n3)cc(C(F)(F)F)c2)c1=O` [I-48, N2-(3-(4-methyl-4,5-dihydro-5-oso-1H-tetrazol-1-yl)-5-trifluoromethylphenyl)-5-fluoro-N4-(2,2,6,6-tetramethylpiperidin-4-yl)pyrimidine-2,5-diamine], the 50% inhibitory concentration (IC50) was < 500 nM.

With `Cn1nnn(-c2cc(Nc3ncc(F)c(NC4CC(C)(C)NC(C)(C)C4)n3)ccc2OC2CCOCC2)c1=O` [I-27, N2-{4-(tetrahydropyran-4-yloxy)-[3-(4-methyl)-1,2,3,4-tetrazol-5-one-1-yl]}phenyl-5-fluoro-N4-(2,2,6,6-tetramethylpyridin-4-yl)-2,4-pyrimidinediamine], the half-maximal inhibitory concentration (IC50) is < 500 nM. For the compound `Cn1nnn(-c2cc(Nc3ncc(F)c(NC4CC(C)(C)NC(C)(C)C4)n3)cc(OC3COC3)c2)c1=O` [I-25, 1-(3-(4-(2,2,6,6-tetramethylpiperidin-4-ylamino)-5-fluoropyrimidin-2-ylamino)-5-(oxetan-3-yloxy)phenyl)-4-methyl-1H-tetrazol-5(4H)-one], the half-maximal inhibitory concentration (IC50) was < 500 nM. Take `Cn1nnn(-c2cc(Nc3ncc(F)c(NC4CC(C)(C)NC(C)(C)C4)n3)ccc2C2CC2)c1=O` [I-33, N2-{4-cyclopropyl-[3-(4-methyl)-1,2,3,4-tetrazol-5-one-1-yl]}phenyl-5-fluoro-N4-(2,2,6,6-tetramethylpiperidin-4-yl)-2,4-pyrimidinediamine]: the IC50 is < 500 nM. Consider `COC(=O)c1cc(Nc2ncc(F)c(NC3CC(C)(C)NC(C)(C)C3)n2)cc(-n2nnn(C)c2=O)c1C` [I-60, Methyl 5-((5-fluoro-4-((2,2,6,6-tetramethylpiperidin-4-yl)amino)-2-pyrimidinyl)amino)-2-methyl-3-(4-methyl-4,5-dihysro-5-oxo-1H-tetrazol-1-yl)benzoate], for which the IC50 was < 500 nM. For the compound `CNC(=O)c1cc(Nc2ncc(F)c(NC3CC(C)(C)N(C)C(C)(C)C3)n2)cc(-n2nnn(C)c2=O)c1C` [I-64, 5-(5-fluoro-4-(1,2,2,6,6-pentamethylpiperidin-4-ylamino)pyrimidin-2-ylamino)-N,2-dimethyl-3-(4-methyl-5-oxo-4,5-dihydro-1H-tetrazol-1-yl)benzamide], the IC50 is < 500 nM.

With `Cn1nnn(-c2cc(Nc3ncc(F)c(NC4CC(C)(C)NC(C)(C)C4)n3)ccc2OCC2(C)COC2)c1=O` [I-28, 5-fluoro-N2-{4-(3-methyloxetan-3-yl)methody-3-[(4-methyl)-1,2,3,4-tetrazol-5-one-1-yl]}phenyl-N4-(2,2,6,6-tetramethylpiperidin-4-yl)-2,4pyrimidinediamine], the IC50 was < 500 nM.

As for `Cc1c(Cl)cc(Nc2ncc(F)c(NC3CC(C)(C)NC(C)(C)C3)n2)cc1-n1nnn(C)c1=O` [I-55, N2-(5-chloro-4-methyl-3-(4-methyl-4,5-dihysro-5-oxo-1H-tetrazol-1-yl)phenyl)-5-fluoro-N4-(2,2,6,6-tetramethylpiperidin-4-yl)pyrimidine-2,4-diamine], the IC50 was < 500 nM. Still for that read-out and setting: next, `Cn1nnn(-c2cc(Nc3ncc(C#N)c(NC4CC(C)(C)NC(C)(C)C4)n3)c(F)cc2C2CC2)c1=O` [I-15, 5-cyano-N2-{4-cyclopropyl-6-fluoro[3-(4-methyl)-1,2,3,4-tetrazol-5-one-1-yl]}phenyl-N4-(2,2,6,6-tetramethylpiperidin-4-yl)-2,4-pyrimidineamine]: < 500 nM; `CN1C(C)(C)CC(Nc2nc(Nc3ccc(OC4CCOCC4)c(-n4nnn(C)c4=O)c3)ncc2F)CC1(C)C` [I-26]: < 500 nM. Still for that read-out and setting: next, `Cn1nnn(-c2cc(Nc3ncc(F)c(NC4CC(C)(C)NC(C)(C)C4)n3)ccc2F)c1=O` [I-4]: < 500 nM; `Cc1c(-n2nnn(C)c2=O)cc(Nc2ncc(F)c(NC3CC(C)(C)N(C)C(C)(C)C3)n2)cc1C(F)(F)F` [I-54, N2-(4-methyl-3-(4-methyl-4,5-dihysro-5-oxo-1H-tetrazol-1-yl)-5-trifluoromethylphenyl)-5-fluoro-N4-(1,2,2,6,6-pentamethylpiperidin-4-yl)pyrimidine-2,4-diamine]: < 500 nM; `Cn1nnn(-c2cc(Nc3ncc(F)c(NC4CC(C)(C)NC(C)(C)C4)n3)ccc2Cl)c1=O` [I-30, N2-{4-chloro-[3-(4-methyl)-1,2,3,4-tetrazol-5-one-1-yl]}phenyl-5-fluoro-N4-(2,2,6,6-tetramethylpiperidin-4-yl)-2,4-pyrimidinediamine]: < 500 nM. The same measure, in the same setting: the result for `Cn1nnn(-c2cc(Nc3ncc(F)c(NC4CC(C)(C)NC(C)(C)C4)n3)cc(C(F)(F)F)c2Cl)c1=O` [I-38, N2-{4-chloro-5-trifluoromethyl-[3-(4-methyl)-1,2,3,4-tetrazol-5-one-1-yl]}phenyl-5-fluoro-N4-(2,2,6,6-tetramethylpiperidin-4-yl)-2,4-pyrimidinediamine] reads < 500 nM.
